Source: ChEMBL document CHEMBL1201862, “PubChem BioAssay data set” (2004)
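All cell lines were grown in 96-well plates and treated with compound for 48 hours. Abbreviation: GI50, concentration required for 50% inhibition of growth.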 Calls of active or inactive are those of the source. No stated cut-off is given here; in the data, active = GI50 up to about 1.1 µM and inactive = higher.

How the values were obtained:
Experiment in all cases: growth of human tumour cells (NCI), 48 h
[1] = system: MDA-MB-231
[2] = system: OVCAR-5
[3] = system: RPMI-8226
[4] = system: SF-268
[5] = system: RXF 393
[6] = system: SNB-19
[7] = system: SN12C
[8] = system: OVCAR-8
[9] = system: UACC-62
[10] = system: SNB-75
[11] = system: SK-MEL-2
[12] = system: SK-MEL-28
[13] = system: Malme-3M
[14] = system: K562
[15] = system: U-251
[16] = system: HCC 2998
[17] = system: NCI-H23
[18] = system: M14
[19] = system: T47D
[20] = system: SW-620
[21] = system: LOX IMVI
[22] = system: UO-31
[23] = system: HL-60
[24] = system: MDA-MB-435
[25] = system: SF-539
[26] = system: UACC-257
[27] = system: HCT-116
[28] = system: DU-145
[29] = system: OVCAR-3
[30] = system: COLO 205
[31] = system: OVCAR-4
[32] = system: 786-0
[33] = system: HCT-15
[34] = system: TK-10
[35] = system: NCI-H522
[36] = system: CAKI-1
[37] = system: SK-OV-3
[38] = system: ACHN
[39] = system: A549
[40] = system: SF-295
[41] = system: CCRF-CEM
[42] = system: MOLT-4
[43] = system: HOP-62
[44] = system: MDA-N
[45] = system: HT-29
[46] = system: SK-MEL-5
[47] = system: HOP-92
[48] = system: KM12
[49] = system: SR
[50] = system: NCI-H460
[51] = system: A498
[52] = system: NCI-H226
[53] = system: PC-3
[54] = system: NCI/ADR-RES
[55] = system: MCF7
[56] = system: BT-549
[57] = system: Hs-578T
[58] = system: IGROV-1
[59] = system: EKVX
[60] = system: DLD-1
[61] = system: KM-20L2
[62] = system: DMS-114
[63] = system: LXFL 529

Q: Which results are given for `CC(C)NC(=O)OCc1c(COC(=O)NC(C)C)c(-c2cc[n+](COC(=O)C3CC3)cc2)n2c1CCC2`?
A: GI50 [1]: > 100 µM (inactive); GI50 [2]: > 100 µM (inactive); GI50 [3]: > 100 µM (inactive); GI50 [4]: > 100 µM (inactive); GI50 [5]: 50.1 µM (inactive); GI50 [6]: > 100 µM (inactive); GI50 [7]: > 100 µM (inactive); GI50 [8]: > 100 µM (inactive); GI50 [9]: > 100 µM (inactive); GI50 [10]: > 100 µM (inactive); GI50 [11]: > 100 µM (inactive); GI50 [12]: > 100 µM (inactive); GI50 [13]: > 100 µM (inactive); GI50 [14]: > 100 µM (inactive); GI50 [15]: > 100 µM (inactive); GI50 [16]: > 100 µM (inactive); GI50 [17]: > 100 µM (inactive); GI50 [18]: > 100 µM (inactive); GI50 [19]: > 100 µM (inactive); GI50 [20]: > 100 µM (inactive); GI50 [21]: > 100 µM (inactive); GI50 [22]: > 100 µM (inactive); GI50 [23]: 86.7 µM (inactive); GI50 [24]: > 100 µM (inactive); GI50 [25]: 42.2 µM (inactive); GI50 [26]: > 100 µM (inactive); GI50 [27]: > 100 µM (inactive); GI50 [28]: > 100 µM (inactive); GI50 [29]: > 100 µM (inactive); GI50 [30]: > 100 µM (inactive); GI50 [31]: > 100 µM (inactive); GI50 [32]: > 100 µM (inactive); GI50 [33]: > 100 µM; GI50 [34]: > 100 µM (inactive); GI50 [35]: > 100 µM (inactive); GI50 [36]: > 100 µM (inactive); GI50 [37]: > 100 µM (inactive); GI50 [38]: 32.4 µM (inactive); GI50 [39]: > 100 µM (inactive); GI50 [40]: > 100 µM (inactive); GI50 [41]: > 100 µM (inactive); GI50 [42]: > 100 µM (inactive); GI50 [43]: > 100 µM (inactive); GI50 [44]: > 100 µM (inactive); GI50 [45]: > 100 µM (inactive); GI50 [46]: > 100 µM (inactive); GI50 [47]: > 100 µM (inactive); GI50 [48]: > 100 µM (inactive); GI50 [49]: > 100 µM (inactive); GI50 [50]: > 100 µM (inactive); GI50 [51]: 79.3 µM (inactive); GI50 [52]: > 100 µM (inactive); GI50 [53]: > 100 µM (inactive); GI50 [54]: > 100 µM (inactive); GI50 [55]: > 100 µM (inactive); GI50 [56]: > 100 µM (inactive); GI50 [57]: > 100 µM (inactive); GI50 [58]: > 100 µM (inactive); GI50 [59]: > 100 µM (inactive)

Q: How did the GI50 [1] turn out when `[N-]=[N+]=Nc1ccc2c(c1)Sc1ccccc1N2CCCCN1CCN(Cc2ccc(C(=O)c3ccccc3)cc2)CC1` was run?
A: 3.11 µM (inactive)

Q: What about the GI50 [2] of the same molecule?
A: 4.16 µM (inactive)

Q: And the GI50 [3]?
A: 3.86 µM (inactive)

Q: And the GI50 [4]?
A: 5.6 µM (inactive)

Q: What about the GI50 [5] of the same molecule?
A: 1.72 µM (inactive)

Q: What about the GI50 [6] of the same molecule?
A: > 100 µM (inactive)

Q: What about the GI50 [7] of the same molecule?
A: > 25.3 µM (inactive)

Q: And the GI50 [8]?
A: 3.4 µM (inactive)

Q: And the GI50 [9]?
A: 2.43 µM (inactive)

Q: And the GI50 [10]?
A: 4.32 µM (inactive)

Q: And the GI50 [11]?
A: 2.65 µM (inactive)

Q: And the GI50 [12]?
A: 1.96 µM (inactive)

Q: And the GI50 [13]?
A: 1.95 µM (inactive)

Q: What about the GI50 [14] of the same molecule?
A: 3.23 µM (inactive)

Q: And the GI50 [15]?
A: 5.74 µM (inactive)

Q: And the GI50 [16]?
A: 2.13 µM (inactive)

Q: And the GI50 [17]?
A: 6.49 µM (inactive)

Q: What about the GI50 [18] of the same molecule?
A: 2 µM (inactive)

Q: What about the GI50 [19] of the same molecule?
A: 3.39 µM (inactive)

Q: What about the GI50 [20] of the same molecule?
A: 6.22 µM (inactive)

Q: What about the GI50 [21] of the same molecule?
A: 1.76 µM (inactive)

Q: What about the GI50 [22] of the same molecule?
A: 2.51 µM (inactive)

Q: What about the GI50 [23] of the same molecule?
A: 2.47 µM (inactive)

Q: What about the GI50 [24] of the same molecule?
A: 4.92 µM (inactive)

Q: And the GI50 [25]?
A: 3.35 µM (inactive)

Q: And the GI50 [26]?
A: 2.04 µM (inactive)

Q: What about the GI50 [27] of the same molecule?
A: 3.43 µM (inactive)

Q: What about the GI50 [28] of the same molecule?
A: > 100 µM (inactive)

Q: What about the GI50 [29] of the same molecule?
A: 3.72 µM (inactive)

Q: What about the GI50 [30] of the same molecule?
A: 1.79 µM (inactive)

Q: What about the GI50 [31] of the same molecule?
A: 4.6 µM (inactive)

Q: And the GI50 [32]?
A: 5.24 µM (inactive)

Q: And the GI50 [33]?
A: 3.47 µM

Q: What about the GI50 [34] of the same molecule?
A: > 39.6 µM (inactive)

Q: What about the GI50 [35] of the same molecule?
A: 1.85 µM (inactive)

Q: What about the GI50 [36] of the same molecule?
A: 7.13 µM (inactive)

Q: What about the GI50 [37] of the same molecule?
A: > 100 µM (inactive)

Q: And the GI50 [38]?
A: 6.46 µM (inactive)

Q: And the GI50 [39]?
A: > 92.5 µM (inactive)

Q: And the GI50 [40]?
A: 23.4 µM (inactive)

Q: What about the GI50 [41] of the same molecule?
A: 5.97 µM (inactive)

Q: What about the GI50 [42] of the same molecule?
A: 3.6 µM (inactive)

Q: What about the GI50 [43] of the same molecule?
A: > 38.9 µM (inactive)

Q: What about the GI50 [44] of the same molecule?
A: 9.51 µM (inactive)

Q: What about the GI50 [45] of the same molecule?
A: 1.46 µM (inactive)

Q: And the GI50 [46]?
A: 2.13 µM (inactive)

Q: And the GI50 [47]?
A: 2.29 µM (inactive)

Q: And the GI50 [48]?
A: 3.01 µM (inactive)

Q: What about the GI50 [49] of the same molecule?
A: 3 µM (inactive)

Q: What about the GI50 [50] of the same molecule?
A: 2.85 µM (inactive)

Q: What about the GI50 [51] of the same molecule?
A: 17.4 µM (inactive)

Q: What about the GI50 [52] of the same molecule?
A: 20.4 µM (inactive)

Q: And the GI50 [53]?
A: 3.35 µM (inactive)

Q: What about the GI50 [54] of the same molecule?
A: 3.68 µM (inactive)

Q: And the GI50 [55]?
A: 2.64 µM (inactive)

Q: What about the GI50 [56] of the same molecule?
A: > 20.7 µM (inactive)

Q: And the GI50 [57]?
A: 16.3 µM (inactive)

Q: What about the GI50 [58] of the same molecule?
A: > 22.3 µM (inactive)

Q: And the GI50 [59]?
A: 6.67 µM (inactive)

Q: How did the GI50 [2] turn out when `CN1CCN(CN2C(=O)C3C4C=CC(C3C2=O)C2C3C(=O)N(CN5CCN(C)CC5)C(=O)C3C42)CC1` (stereo not drawn) was run?
A: 22.1 µM (inactive)

Q: What about the GI50 [3] of the same molecule?
A: 34.2 µM (inactive)

Q: And the GI50 [4]?
A: 17.2 µM (inactive)

Q: What about the GI50 [5] of the same molecule?
A: 20.7 µM (inactive)

Q: What about the GI50 [7] of the same molecule?
A: 22.5 µM (inactive)

Q: What about the GI50 [8] of the same molecule?
A: 24.7 µM (inactive)

Q: And the GI50 [9]?
A: 24.1 µM (inactive)

Q: And the GI50 [60]?
A: 24.1 µM (inactive)

Q: And the GI50 [10]?
A: 27.7 µM (inactive)

Q: And the GI50 [61]?
A: 25.5 µM (inactive)

Q: And the GI50 [62]?
A: 19.6 µM (inactive)

Q: What about the GI50 [12] of the same molecule?
A: 19.3 µM (inactive)

Q: What about the GI50 [63] of the same molecule?
A: 23.8 µM (inactive)

Q: What about the GI50 [14] of the same molecule?
A: 28.2 µM (inactive)

Q: And the GI50 [15]?
A: 18.2 µM (inactive)

Q: And the GI50 [16]?
A: 27.7 µM (inactive)

Q: What about the GI50 [17] of the same molecule?
A: 28.7 µM (inactive)

Q: What about the GI50 [18] of the same molecule?
A: 21.3 µM (inactive)

Q: And the GI50 [20]?
A: 16.4 µM (inactive)

Q: What about the GI50 [21] of the same molecule?
A: 17.4 µM (inactive)

Q: And the GI50 [22]?
A: 32.1 µM (inactive)

Q: What about the GI50 [25] of the same molecule?
A: 24.7 µM (inactive)

Q: And the GI50 [27]?
A: 13 µM (inactive)

Q: What about the GI50 [29] of the same molecule?
A: 29.1 µM (inactive)

Q: And the GI50 [30]?
A: 20.2 µM (inactive)

Q: What about the GI50 [31] of the same molecule?
A: 24.5 µM (inactive)

Q: And the GI50 [32]?
A: 18.4 µM (inactive)

Q: What about the GI50 [33] of the same molecule?
A: 14.6 µM

Q: And the GI50 [34]?
A: 31.1 µM (inactive)

Q: What about the GI50 [35] of the same molecule?
A: 12.5 µM (inactive)

Q: What about the GI50 [38] of the same molecule?
A: 19.1 µM (inactive)

Q: What about the GI50 [39] of the same molecule?
A: 18.6 µM (inactive)

Q: What about the GI50 [41] of the same molecule?
A: 22 µM (inactive)

Q: And the GI50 [42]?
A: 29.9 µM (inactive)

Q: What about the GI50 [45] of the same molecule?
A: 45.9 µM (inactive)

Q: What about the GI50 [46] of the same molecule?
A: 30.4 µM (inactive)

Q: What about the GI50 [48] of the same molecule?
A: 32.7 µM (inactive)

Q: And the GI50 [50]?
A: 13.5 µM (inactive)

Q: And the GI50 [51]?
A: > 100 µM (inactive)

Q: What about the GI50 [58] of the same molecule?
A: 42.6 µM (inactive)
